Laboratory results as given in the NIST ThermoML archive (doi:10.1016/j.fluid.2005.01.001).

Details: Liquid

FCC(F)(F)F [1,1,1,2-tetrafluoroethane]
Details	vapor or sublimation pressure [kPa]
277.22 K	339.5
279.24 K	364
281.25 K	389.7
283.24 K	416.7
285.26 K	445.4
287.27 K	475.4
289.27 K	506.9
291.29 K	539.9
293.31 K	575.1
295.3 K	610.8
297.32 K	649.3
299.21 K	685.5
299.31 K	688.7
299.34 K	689.4
301.19 K	726.7
301.3 K	730
303.06 K	767
303.19 K	769.8
303.31 K	773.5
305.33 K	819.1
307.34 K	866.6
309.35 K	916
311.35 K	967.3
313.31 K	1019.3
315.36 K	1076.9
317.32 K	1133
319.38 K	1195.5
321.34 K	1256.1
329.37 K	1532.3
335.39 K	1767.4
337.41 K	1851.9
339.41 K	1939.2
341.43 K	2029.5
343.43 K	2123
347.44 K	2319.8
349.46 K	2419.4
351.46 K	2530.3
353.48 K	2641.1
355.48 K	2755.4
360.48 K	3054.3

COC [dimethyl ether]
Details	vapor or sublimation pressure [kPa]
278.25 K	317.6
283.2 K	373.6
288.19 K	437.4
293.2 K	509.4
298.19 K	589.6
303.18 K	679.2
303.19 K	678.1
308.19 K	778.7
313.2 K	888.8
318.19 K	1009.5
323.28 K	1144.5
323.37 K	1146.2
328.25 K	1289.2
333.23 K	1447.2
338.23 K	1619.9
343.18 K	1805.3
343.41 K	1814.4
347.42 K	1976.8
348.17 K	2007.3
351.44 K	2149.6
353.1 K	2224.5
353.45 K	2240
355.08 K	2315.6
355.46 K	2333.3
357.49 K	2429.5
359.49 K	2528.5
360.52 K	2579.1
